Earlier results, collected in patent US20100317666A1, “Composition Comprising An NK-1 Receptor Antagonist And An SSRI For The Treatment Of Tinnitus And Hearing Loss” (Glaxo Group Limited, priority 2006, published 2010).

Key:
[1] = 8-12 weeks treatment; high dose (up to 50 mg/day)
[2] = iv infusion; transient effect

Compound	effects on tinnitus [1]	subject responding with tinnitus partial or complete inhibition [2]
Fc1ccc([C@@H]2CCNC[C@H]2COc2ccc3c(c2)OCO3)cc1 (relative stereo) [paroxetine, trans-(−)-3-[(1,3-benzodioxol-5-yloxy)methyl]-4-(4-fluorophenyl)piperidine]	Modest effects	–
CCN(CC)CC(=O)Nc1c(C)cccc1C [lidocaine]	–	up to 60%
